Source: the supplement of paper PMC10307832

Assays:
Assay in all cases: relative viability (nuclei count vs DMSO), 5 days (fraction); higher = more cells survive
[1] = compound: CC1=C(C(=NN1)C)CC2=C(C3=C(S2)N(C(=O)N(C3=O)C)CC(C)C)C(=O)N4C[C@@H](CO4)O + O=C(c1cc(Cc2n[nH]c(=O)c3ccccc23)ccc1F)N1CCN(C(=O)C2CC2)CC1 [Olaparib] (partner 8 µM)
Outline: (§1)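 Values are medians from duplicate plates. Each reflects relative viability, defined as the nuclei count of treated wells over that of vehicle wells. Lung cancer cell lines in 1536-well plates were pin-tool dosed one day after seeding with one drug alone or with a fixed anchor-drug dose plus five library-drug doses (not always all listed) in √10 steps, then fixed, stained and imaged at 4× after 5 days.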

[2] = compound: CC1=C(C(=NN1)C)CC2=C(C3=C(S2)N(C(=O)N(C3=O)C)CC(C)C)C(=O)N4C[C@@H](CO4)O + CS(=O)(=O)CCNCc1ccc(-c2ccc3ncnc(Nc4ccc(OCc5cccc(F)c5)c(Cl)c4)c3c2)o1 [Lapatinib] (partner 2 µM)
Outline: as §1

[3] = compound: CC1=C(C(=NN1)C)CC2=C(C3=C(S2)N(C(=O)N(C3=O)C)CC(C)C)C(=O)N4C[C@@H](CO4)O + Cc1cc(Nc2cc(N3CCN(C)CC3)nc(Sc3ccc(NC(=O)C4CC4)cc3)n2)n[nH]1 [Tozasertib] (partner 0.1 µM)
Outline: as §1

[4] = compound: CC1=C(C(=NN1)C)CC2=C(C3=C(S2)N(C(=O)N(C3=O)C)CC(C)C)C(=O)N4C[C@@H](CO4)O + CC(C)C[C@H](NC(=O)[C@H](Cc1ccccc1)NC(=O)c1cnccn1)B(O)O [Bortezomib] (partner 0.002 µM)
Outline: as §1

Cell Line	relative viability ([1]; first compound 0.0025 µM)	relative viability ([1]; first compound 0.007906 µM)	relative viability ([1]; first compound 0.025 µM)	relative viability ([1]; first compound 0.07906 µM)	relative viability ([1]; first compound 0.25 µM)	relative viability ([2]; first compound 0.0025 µM)	relative viability ([2]; first compound 0.007906 µM)	relative viability ([2]; first compound 0.025 µM)	relative viability ([2]; first compound 0.07906 µM)	relative viability ([2]; first compound 0.25 µM)	relative viability ([3]; first compound 0.0025 µM)	relative viability ([3]; first compound 0.007906 µM)	relative viability ([3]; first compound 0.025 µM)	relative viability ([3]; first compound 0.07906 µM)	relative viability ([3]; first compound 0.25 µM)	relative viability ([4]; first compound 0.0025 µM)	relative viability ([4]; first compound 0.007906 µM)	relative viability ([4]; first compound 0.025 µM)	relative viability ([4]; first compound 0.07906 µM)	relative viability ([4]; first compound 0.25 µM)
H3255	0.555	0.56	0.52	0.546	0.576	0.24	0.244	0.25	0.241	0.223	0.803	0.768	0.657	0.56	0.59	0.819	0.79	0.734	0.758	1.02
NCI-H647	0.626	0.415	0.481	0.647	0.685	1.28	1.35	1.04	1.15	1.19	0.2	0.265	0.269	0.189	0.322	1.27	1.09	0.802	1.11	1.1
NCI-H2023	0.47	0.496	0.449	0.435	0.51	1.1	0.965	0.903	1.03	0.861	0.332	0.362	0.356	0.412	0.327	1.11	1.11	0.945	0.975	0.963
NCI-H23	0.39	0.322	0.311	0.339	0.376	1.21	1.26	0.931	1.27	1.28	0.784	0.42	0.412	0.334	0.388	1.07	1.24	0.848	0.964	1.33
NCI-H520	0.286	0.296	0.26	0.253	0.272	0.983	0.823	0.621	0.496	0.544	0.406	0.433	0.432	0.445	0.407	0.646	0.413	0.192	0.23	0.28
NCI-H460	0.419	0.516	0.418	0.355	0.459	0.959	1.34	0.996	1.08	1.28	0.493	0.337	0.494	0.479	0.54	1.1	1.37	0.984	1.07	1.28
EKVX	1.02	0.969	0.892	0.775	0.988	0.251	0.198	0.203	0.524	0.191	0.398	0.404	0.432	0.394	0.422	1.02	1.33	1.07	0.992	1.03
EPLC-272H	0.69	0.778	0.771	0.844	1.09	1.08	0.736	0.907	1.19	0.937	0.267	0.227	0.324	0.259	0.609	0.919	0.874	0.971	1.01	0.925
